The text below walks through data of patent US9533972B2, “Substituted sodium-1H-pyrazole-5-olate” (Bayer Intellectual Property GmbH, priority 2010, dated 2017).

Molecules are shown by their SMILES. pEC50: −log10 of the molar value.

Data set [1] is described as follows: Vapour adsorption and vapour desorption (moisture sorption isotherm). Format: physicochemical. The settings on record: 25° C. The method, then:
The moisture sorption isotherm was recorded using a Dynamic Vapour Sorption Analyzer IGA Sorp from Hiden Analytical. The measuring temperature was 25° C. There was no sample preparation.

The nature of data set [2]: Solubility in water. The format is physicochemical. Conditions: comparison in words. The protocol:
Method: Saturated solutions of the test substance were prepared by stirring a suspension in water at 25° C. for 16 hours. The suspensions obtained were then filtered, and the content in the filtrate was determined by HPLC.

In data set [3] the test system is recombinant A549 cell line with luciferase reporter under hypoxia-responsible elements. The data set is described as follows: Cellular, functional in vitro test (luciferase reporter under hypoxia-responsible elements). Conditions: Homo sapiens; A549-derived luciferase reporter cell line. The format is cell-based. An excerpt: The activity of the compounds according to the invention is quantified with the aid of a recombinant cell line. The cell is originally derived from a human lung carcinoma cell line (A549, ATCC: American Type Culture Collection, Manassas, Va. 20108, USA). The test cell line is transfected in a stable manner with a vector which contains the reporter gene of Photinus pyralis luciferase (called luciferase in the following) under the control of an artificial minimal promoter. The minimal promoter comprises two hypoxia-responsible elements upstream of a TATA box [Oehme F., Ellinghaus P., Kolkhof P., Smith T. J., Ramakrishnan S., Hatter J., Schramm M., Flamme I., Biochem. Biophys. Res. Commun. 296 (2), 343-9 (2002)]. Under the effect of hypoxia (e.g. culturing in the presence of 1% oxygen for 24 hours) or under the action of non-selective dioxygenase inhibitors (e.g. desferroxamine in a concentration of 100 μM, cobalt chloride in a concentration of 100 μM or N-oxalylglycine diethyl ester in a concentration of 1 mM), the test cell line produces luciferase, which can be detected and quantified with the aid of suitable bioluminescence reagents (e.g. Steady-Glo® Luciferase Assay System, Promega Corporation, Madison, Wis. 53711, USA) and a suitable luminometer. […]

Data set [4] in a line: Water uptake / hygroscopicity at customary environmental conditions. The format is physicochemical. The protocol:
The compound of the formula (I) is hygroscopic and, at customary environmental conditions (20-35° C., atmospheric pressure), takes up up to about 6% by weight of water even at a relative atmospheric humidity above 20% rh. At an atmospheric humidity of 30% rh, the uptake of 6% by weight of water is almost complete. If the atmospheric humidity decreases below 30% rh, the compound of the formula (I) releases part of the water it comprises. This uptake of water or release of water renders handling of the compound of the formula (I), for example weighing operations, and the production of the compound of the formula (I) in a uniform, stable and definined form for use in medicaments or the production of medicaments comprising compound of the formula (I) more difficult. In particular, this increases the technical expenditure during the production of administration forms comprising the compound of the formula (I), such as, for example, tablets, granules or drink solutions, since measures for controlling and regulating atmospheric humidity are required to maintain a uniform concentration of the compound of the formula (I). […]

On to `Oc1c(-n2ccnn2)cnn1-c1cc(N2CCOCC2)ncn1` [Compound of the formula (I), 1-[6-(morpholin-4-yl)pyrimidin-4-yl]-4-(1H-1,2,3-triazol-1-yl)-1H-pyrazol-5-ol, reference compound], for which the Desorption in data set [1] (5% rh) is 0.1% (5% rh).

As a reminder, the pEC50 is the EC50 on a negative log10 scale, so that one unit is a factor of ten. On to `[Na+].[O-]c1c(-n2ccnn2)cnn1-c1cc(N2CCOCC2)ncn1` [Compound of the formula (II), sodium 1-[6-(morpholin-4-yl)pyrimidin-4-yl]-4-(1H-1,2,3-triazol-1-yl)-1H-pyrazol-5-olate], for which, in data set [2], the “solubility in water compared to the compound of the formula (I)” value is reported as “higher solubility in water”. Also, the pEC50 in data set [3] was 5.15. In addition, the Adsorption in data set [1] (0% rh) and in data set [1] (10% rh) was 0% in each case. In addition, the Desorption in data set [1] (0% rh), in data set [1] (10% rh) and in data set [1] (20% rh) was 0% each time. Besides, in data set [4], the water comprised entry was “less than 0.5 % by weight”.
